How the values were obtained:
SNU-1033 cells = assay: SNU-1033 TGI 46 colorectal cancer xenograft, tumor volumes; format: in vivo, nude/nude mice; conditions: for Average Tumor Volumes: 30 mg/kg BID 2x/week
Protocol: Immunocompromised nude/nude mice are inoculated in the right hind flank with cells harboring a KRas G12D mutation. When tumor volumes reach between 200-400 mm^3 in size, the mice are divided into four to five groups of 5 mice each. The first group is administered vehicle only. […] The fourth or last groups are administered the single agent dose of the KRas G12D inhibitor using the twice daily schedule and/or the 2 sequential days followed by 5 days off schedule in combination with the single agent dose of one of the EGFR inhibitors. […] Tumor volumes are measured using a caliper every two-three days and tumor volumes are calculated by the formula: […].
20 to 30 nude/nude mice per study were inoculated in the right hind limb with 5×10^6 LS180 cells, AsPC-1 cells, GP2D cells, Panc 02.03 cells, SW1990 cells, or SNU-1033 cells.
Experimental Procedures. 20 nude/nude mice were inoculated with SNU-1033 cells in the right hind flank. When the tumors reached ˜300 mm^3 four treatment groups were established with five mice per group.

HPAC cells = assay: HPAC TGI 73 pancreatic cancer xenograft, tumor volumes; format: in vivo, nude/nude mice; conditions: for Average Tumor Volumes: 30 mg/kg IP BID daily
Protocol: Immunocompromised nude/nude mice are inoculated in the right hind flank with cells harboring a KRas G12D mutation. When tumor volumes reach between 200-400 mm^3 in size, the mice are divided into four to five groups of 5 mice each. The first group is administered vehicle only. […] The fourth or last groups are administered the single agent dose of the KRas G12D inhibitor using the twice daily schedule and/or the 2 sequential days followed by 5 days off schedule in combination with the single agent dose of one of the EGFR inhibitors. The treatment period varies from cell line to cell line but typically is between 15-40 days. Tumor volumes are measured using a caliper every two-three days and tumor volumes are calculated by the formula: […].
Experimental Procedures. 20 nude/nude mice were inoculated with HPAC cells in the right hind flank. When the tumors reached ˜200 mm^3 four treatment groups were established with five mice per group.

`C#Cc1c(F)ccc2cc(O)cc(-c3ncc4c(N5C[C@H]6CC[C@@H](C5)N6)nc(OC[C@@]56CCCN5C[C@H](F)C6)nc4c3F)c12` [MRTX1133, 4-(4-((1R,5S)-3,8-diazabicyclo[3.2.1]octan-3-yl)-8-fluoro-2-(((2R,7aS)-2-fluorohexahydro-1H-pyrrolizin-7a-yl)methoxy)pyrido[4,3-d]pyrimidin-7-yl)-5-ethynyl-6-fluoronaphthalen-2-ol] was tested, and the “Average Tumor Volumes” value (SNU-1033 cells; Study Day 1) was 298.92 mm^3, the “Average Tumor Volumes” value (SNU-1033 cells; Study Day 5) was 336.336 mm^3 and the “Average Tumor Volumes” value (SNU-1033 cells; Study Day 8) was 431.99 mm^3. For the same compound, the “Average Tumor Volumes” value (SNU-1033 cells; Study Day 12) was 468.892 mm^3, the “Average Tumor Volumes” value (SNU-1033 cells; Study Day 15) was 529.222 mm^3 and the “Average Tumor Volumes” value (SNU-1033 cells; Study Day 19) was 643.516 mm^3. The “Average Tumor Volumes” value (SNU-1033 cells; Study Day 22) was 703.368 mm^3, the “Average Tumor Volumes” value (SNU-1033 cells; Study Day 26) was 802.69 mm^3 and the “Average Tumor Volumes” value (SNU-1033 cells; Study Day 29) was 838.708 mm^3. For the same compound, the “Average Tumor Volumes” value (SNU-1033 cells; Study Day 33) was 895.918 mm^3, the tumor growth inhibition (SNU-1033 cells; 30 mg/kg twice per week, single agent, Day 33) was 47% and the “Average Tumor Volumes” value (HPAC cells; Study Day 0) was 196.76 mm^3. The “Average Tumor Volumes” value (HPAC cells; Study Day 3) was 149.646 mm^3, the “Average Tumor Volumes” value (HPAC cells; Study Day 7) was 107.504 mm^3 and the “Average Tumor Volumes” value (HPAC cells; Study Day 10) was 99.742 mm^3. The “Average Tumor Volumes” value (HPAC cells; Study Day 14) was 91.818 mm^3, the “Average Tumor Volumes” value (HPAC cells; Study Day 17) was 93.348 mm^3 and the “Average Tumor Volumes” value (HPAC cells; Study Day 21) was 74.006 mm^3. The tumor regression (HPAC cells; 30 mg/kg daily, single agent, Day 21) was −62%.
